{
  "source": "patent US9738634B2",
  "about": "“Heterocyclic amide compound and herbicide” (SYNGENTA PARTICIPATIONS AG, priority 2013, dated 2017)",
  "type_in_all_cases": "in vivo",
  "details_in_all_cases": "treatment dosage 80 g/ha",
  "key": {"Italian ryegrass [1]": {"tested_on": "Italian ryegrass", "assay": "Test Example 3: weedkilling efficacy through soil treatment; I: Italian ryegrass", "procedure,_shortened": "(§1)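 Crop and weed responses were judged three weeks after a uniform surface spray of the water-diluted emulsion at the given g/ha rate. Seeds sat beneath about 1.5 cm of sterilized diluvial soil, and boxes stood in a greenhouse at 25 to 30° C.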"}, "Italian ryegrass [2]": {"tested_on": "Italian ryegrass", "assay": "Test Example 4: weedkilling efficacy by foliar treatment; I: Italian ryegrass", "procedure,_shortened": "(§2)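 Seeds are spot-sown into sterilized diluvial soil and covered with about 1.5 cm of soil. After 14 days' greenhouse growth at 25 to 30° C, plants are sprayed on stems and leaves with diluted emulsion at the stated g/ha rate, then scored at 3 weeks.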"}, "common wind-grass [3]": {"tested_on": "common wind-grass", "assay": "Test Example 4: weedkilling efficacy by foliar treatment; J: common wind-grass", "experimental": "(§3) Testing of Weedkilling Efficacy by Foliar Treatment\n(§4) Sterilized diluvial soil was introduced into 21 cm long, 13 cm wide, 7 cm deep plastic boxes, and seeds of crabgrass, green foxtail, barnyard grass, wild oat, black-grass, Italian ryegrass, common wind-grass, Indian mallow, redroot pigweed, fig-leafed goosefoot, chickweed, catchweed, birds-eye speedwell, corn, soybean, rice, wheat, beet and rapeseed were each spot-sown, and covered with about 1.5 cm of soil, then the plants were grown in a greenhouse at 25 to 30° C.\n(§5) After they had grown for 14 days, emulsions of compounds of the present invention prepared according to compounding example 2 were diluted with water to give the specified dosages, and applied uniformly onto the stem and leaf parts with a small sprayer. 3 weeks after the pesticide treatment the effect on each type of plant was investigated on the basis of the assessment criteria of test example 1.\n(§6) A: barnyard grass, B: bulrush, C: oval-leafed pondweed, D: crabgrass, E: green foxtail, F: barnyard grass, G: wild oat, H: black-grass, I: Italian ryegrass, J: common wind-grass, K: Indian mallow, L: redroot pigweed, M: fig-leafed goosefoot, N: chickweed, O: catchweed, p: birds-eye speedwell, a: transplanted rice, b: directly sown rice, c: corn, d: soybean, e: wheat, f: beet, g: rapeseed\n(§7) Further, pesticide dosage (g/ha) indicates the concentration regulated such that treatment was with only the stated number of grams (g), when calculated per hectare (ha)."}, "wheat [4]": {"tested_on": "wheat", "assay": "Test Example 4: foliar treatment, effect on crop; e: wheat", "procedure,_shortened": "as §2"}, "common wind-grass [5]": {"tested_on": "common wind-grass", "assay": "Test Example 3: weedkilling efficacy through soil treatment; J: common wind-grass", "procedure,_shortened": "as §1"}, "rapeseed [6]": {"tested_on": "rapeseed", "assay": "Test Example 4: foliar treatment, effect on crop; g: rapeseed", "experimental": "as §3, §4, §5, §6, §7"}, "black-grass [7]": {"tested_on": "black-grass", "assay": "Test Example 4: weedkilling efficacy by foliar treatment; H: black-grass", "procedure,_shortened": "as §2"}, "wheat [8]": {"tested_on": "wheat", "assay": "Test Example 3: soil treatment, effect on crop; e: wheat", "procedure,_shortened": "as §1"}, "rapeseed [9]": {"tested_on": "rapeseed", "assay": "Test Example 3: soil treatment, effect on crop; g: rapeseed", "procedure,_shortened": "as §1"}, "black-grass [10]": {"tested_on": "black-grass", "assay": "Test Example 3: weedkilling efficacy through soil treatment; H: black-grass", "procedure,_shortened": "as §1"}},
  "data": [
    {"smiles": "CC1=C(c2ccccc2)C(=O)N(C(C)(C)C(=O)Nc2cc(Cl)ccn2)CO1", "note": "[B-2-28]", "values": [
      {"measurement": "I (Italian ryegrass) weedkilling efficacy grade", "setting": "Italian ryegrass [1]", "result": "5 (weed kill ratio 90% or more, (practically complete withering))"},
      {"measurement": "I (Italian ryegrass) weedkilling efficacy grade", "setting": "Italian ryegrass [2]", "result": "5 (weed kill ratio 90% or more, (practically complete withering))"},
      {"measurement": "J (common wind-grass) weedkilling efficacy grade", "setting": "common wind-grass [3]", "result": "5 (weed kill ratio 90% or more, (practically complete withering))"},
      {"measurement": "e (wheat) effect on crop grade", "setting": "wheat [4]", "result": "0 (weed kill ratio 5% or less (practically no effect))"},
      {"measurement": "J (common wind-grass) weedkilling efficacy grade", "setting": "common wind-grass [5]", "result": "5 (weed kill ratio 90% or more, (practically complete withering))"},
      {"measurement": "g (rapeseed) effect on crop grade", "setting": "rapeseed [6]", "result": "3 (weed kill ratio 40% or more, less than 70%)"},
      {"measurement": "H (black-grass) weedkilling efficacy grade", "setting": "black-grass [7]", "result": "5 (weed kill ratio 90% or more, (practically complete withering))"},
      {"measurement": "e (wheat) effect on crop grade", "setting": "wheat [8]", "result": "0 (weed kill ratio 5% or less (practically no effect))"},
      {"measurement": "g (rapeseed) effect on crop grade", "setting": "rapeseed [9]", "result": "0 (weed kill ratio 5% or less (practically no effect))"},
      {"measurement": "H (black-grass) weedkilling efficacy grade", "setting": "black-grass [10]", "result": "5 (weed kill ratio 90% or more, (practically complete withering))"}
    ]},
    {"smiles": "CC1=C(c2ccccc2)C(=O)N(C(C)(C)C(=O)Nc2cc(C)ccn2)CO1", "note": "[B-2-52]", "values": [
      {"measurement": "I (Italian ryegrass) weedkilling efficacy grade", "setting": "Italian ryegrass [1]", "result": "5 (weed kill ratio 90% or more, (practically complete withering))"},
      {"measurement": "I (Italian ryegrass) weedkilling efficacy grade", "setting": "Italian ryegrass [2]", "result": "3 (weed kill ratio 40% or more, less than 70%)"},
      {"measurement": "J (common wind-grass) weedkilling efficacy grade", "setting": "common wind-grass [3]", "result": "5 (weed kill ratio 90% or more, (practically complete withering))"},
      {"measurement": "e (wheat) effect on crop grade", "setting": "wheat [4]", "result": "0 (weed kill ratio 5% or less (practically no effect))"},
      {"measurement": "J (common wind-grass) weedkilling efficacy grade", "setting": "common wind-grass [5]", "result": "5 (weed kill ratio 90% or more, (practically complete withering))"},
      {"measurement": "g (rapeseed) effect on crop grade", "setting": "rapeseed [6]", "result": "0 (weed kill ratio 5% or less (practically no effect))"},
      {"measurement": "H (black-grass) weedkilling efficacy grade", "setting": "black-grass [7]", "result": "2 (weed kill ratio 20% or more, less than 40%)"},
      {"measurement": "e (wheat) effect on crop grade", "setting": "wheat [8]", "result": "0 (weed kill ratio 5% or less (practically no effect))"},
      {"measurement": "g (rapeseed) effect on crop grade", "setting": "rapeseed [9]", "result": "1 (weed kill ratio 5% or more, less than 20%)"},
      {"measurement": "H (black-grass) weedkilling efficacy grade", "setting": "black-grass [10]", "result": "4 (weed kill ratio 70% or more, less than 90%)"}
    ]}
  ]
}
